Reference: patent US20260262643A1, “HERBICIDAL BENZOXAZINES” (FMC CORPORATION, priority 2022, published 2026)

Key:
sedge, umbrella = assay: Test D flooded paddy test; type: in vivo, Cyperus difformis; conditions: 250 g ai/ha, applied to paddy water, visual rating after 13 to 14 days, scale 0 to 100 (0 no effect, 100 complete control)
How it was run: (§1)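 At the 2-leaf stage, floodwater 3 cm deep received the test compound; that depth persisted throughout. Plants scored visually 13 to 14 days on, 0 (no effect) to 100 (complete control), dash indicating no result.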

ducksalad = assay: Test D flooded paddy test; type: in vivo, Heteranthera limosa; conditions: 250 g ai/ha, applied to paddy water, visual rating after 13 to 14 days, scale 0 to 100 (0 no effect, 100 complete control)
How it was run: as §1

wheat [1] = assay: Test C postemergence; type: in vivo, Triticum aestivum; conditions: postemergence, 10 days
How it was run: (§2)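 Visual injury score, 0–100 (100 = complete control), taken 10 days after treatment relative to untreated controls. Pre: directed spray onto soil over sown seeds. Post: foliar spray at one- to two-leaf stage, 2–10 cm. Solvent/surfactant formulation; loam–sand soil; greenhouse.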

galium = assay: Test C postemergence; type: in vivo, Galium aparine; conditions: postemergence, 10 days
How it was run: as §2

ragweed [2] = assay: Test C preemergence; type: in vivo, Ambrosia artemisiifolia; conditions: preemergence, 0 to 100 scale (0 no effect, 100 complete control)
How it was run: as §2

soybean [3] = assay: Test C postemergence; type: in vivo, Glycine max; conditions: postemergence, 10 days
How it was run: as §2

ryegrass, Italian [4] = assay: Test C postemergence; type: in vivo, Lolium multiflorum; conditions: postemergence, 10 days
How it was run: as §2

ragweed [5] = assay: Test C postemergence; type: in vivo, Ambrosia artemisiifolia; conditions: postemergence, 10 days
How it was run: as §2

oat, wild [6] = assay: Test C preemergence; type: in vivo, Avena fatua; conditions: preemergence, 0 to 100 scale (0 no effect, 100 complete control)
How it was run: as §2

corn [7] = assay: Test C postemergence; type: in vivo, Zea mays; conditions: postemergence, 10 days
How it was run: as §2

soybean [8] = assay: Test C preemergence; type: in vivo, Glycine max; conditions: preemergence, 0 to 100 scale (0 no effect, 100 complete control)
How it was run: as §2

pigweed, palmer [9] = assay: Test C postemergence; type: in vivo, Amaranthus palmeri; conditions: postemergence, 10 days
How it was run: as §2

goosegrass [10] = assay: Test C postemergence; type: in vivo, Eleusine indica; conditions: postemergence, 10 days
Description: (§3) Seeds of plant species selected from barnyardgrass (Echinochloa crusgalli), blackgrass (Alopecurus myosuroides), corn (Zea mays), foxtail, giant (giant foxtail, Setaria faberi), green foxtail (Setaria viridis), goosegrass (Eleusine indica), kochia (Bassia scoparia), oat, wild (wild oat, Avena fatua), pigweed, palmer (palmer amaranth, palmer pigweed, Amaranthus palmeri), Pigweed, Redroot (redroot pigweed, Amaranthus retroflexus), ragweed (common ragweed, Ambrosia artemisiifolia), ryegrass, Italian ([…] ryegrass, Lolium multiflorum), soybean (Glycine max), and wheat (Triticum aestivum) were planted into a blend of loam soil and sand and treated preemergence with a directed soil spray using test chemicals formulated in a non-phytotoxic solvent mixture which included a surfactant. At the same time, plants selected from these crops and weed species and also galium (catchweed bedstraw, Galium aparine) and horseweed (Erigeron canadensis) were planted in pots containing the same blend of loam soil and sand and treated with postemergence applications of test chemicals formulated in the same manner. Plants ranged in height from 2 to 10 cm and were in the one- to two-leaf stage for the postemergence treatment. Treated plants and untreated controls were maintained in a greenhouse for 10 days, after which time all treated plants were compared to untreated controls and visually evaluated for injury. Plant response ratings, summarized in Table C, are based on a 0 to 100 scale where 0 is no effect and 100 is complete control. A dash (-) response means no test result.

corn [11] = assay: Test C preemergence; type: in vivo, Zea mays; conditions: preemergence, 0 to 100 scale (0 no effect, 100 complete control)
How it was run: as §2

kochia [12] = assay: Test C postemergence; type: in vivo, Bassia scoparia; conditions: postemergence, 10 days
How it was run: as §2

foxtail, giant [13] = assay: Test C postemergence; type: in vivo, Setaria faberi; conditions: postemergence, 10 days
How it was run: as §2

wheat [14] = assay: Test C preemergence; type: in vivo, Triticum aestivum; conditions: preemergence, 0 to 100 scale (0 no effect, 100 complete control)
How it was run: as §2

oat, wild [15] = assay: Test C postemergence; type: in vivo, Avena fatua; conditions: postemergence, 10 days
How it was run: as §2

blackgrass [16] = assay: Test C preemergence; type: in vivo, Alopecurus myosuroides; conditions: preemergence, 0 to 100 scale (0 no effect, 100 complete control)
How it was run: as §2

foxtail, giant [17] = assay: Test C preemergence; type: in vivo, Setaria faberi; conditions: preemergence, 0 to 100 scale (0 no effect, 100 complete control)
How it was run: as §2

goosegrass [18] = assay: Test C preemergence; type: in vivo, Eleusine indica; conditions: preemergence, 0 to 100 scale (0 no effect, 100 complete control)
Description: as §3

barnyardgrass = assay: Test D flooded paddy test; type: in vivo, Echinochloa crus-galli; conditions: 250 g ai/ha, applied to paddy water, visual rating after 13 to 14 days, scale 0 to 100 (0 no effect, 100 complete control)
How it was run: as §1

ryegrass, Italian [19] = assay: Test C preemergence; type: in vivo, Lolium multiflorum; conditions: preemergence, 0 to 100 scale (0 no effect, 100 complete control)
How it was run: as §2

horseweed = assay: Test C postemergence; type: in vivo, Erigeron canadensis; conditions: postemergence, 10 days
How it was run: as §2

rice = assay: Test D flooded paddy test; type: in vivo, Oryza sativa; conditions: 250 g ai/ha, applied to paddy water, visual rating after 13 to 14 days, scale 0 to 100 (0 no effect, 100 complete control)
How it was run: as §1

blackgrass [20] = assay: Test C postemergence; type: in vivo, Alopecurus myosuroides; conditions: postemergence, 10 days
How it was run: as §2

pigweed, palmer [21] = assay: Test C preemergence; type: in vivo, Amaranthus palmeri; conditions: preemergence, 0 to 100 scale (0 no effect, 100 complete control)
How it was run: as §2

kochia [22] = assay: Test C preemergence; type: in vivo, Bassia scoparia; conditions: preemergence, 0 to 100 scale (0 no effect, 100 complete control)
How it was run: as §2

[23] = 125 g ai/ha, 0 to 100 scale, 0 no effect, 100 complete control
[24] = 500 g ai/ha, 0 to 100 scale (0 no effect, 100 complete control)

SMILES: CC1Oc2ccccc2N(C(=O)c2cccc(-n3cncn3)c2)C1C (stereo not shown) [Compound 285]
- Plant response rating, Sedge, Umbrella (Flood) (sedge, umbrella): 0
- Plant response rating, Ducksalad (Flood) (ducksalad): 0
- Plant response rating, Wheat (wheat [1]; [23]): 0
- Plant response rating, Wheat (wheat [1]; [24]): 0
- Plant response rating, Galium (galium; [23]): 0
- Plant response rating, Galium (galium; [24]): 30
- Ragweed plant response rating (ragweed [2]; 500 g ai/ha): 0
- Ragweed plant response rating (ragweed [2]; Test C, 125 g ai/ha): 0
- Plant response rating, Soybean (soybean [3]; [23]): 0
- Plant response rating, Soybean (soybean [3]; [24]): 10
- Plant response rating, Ryegrass, Italian (ryegrass, Italian [4]; [23]): 0
- Plant response rating, Ryegrass, Italian (ryegrass, Italian [4]; [24]): 0
- Plant response rating, Ragweed (ragweed [5]; [23]): 0
- Plant response rating, Ragweed (ragweed [5]; [24]): 0
- Oat, Wild plant response rating (oat, wild [6]; 500 g ai/ha): 0
- Oat, Wild plant response rating (oat, wild [6]; Test C, 125 g ai/ha): 0
- Corn plant response rating (crop injury, 0 = no effect, 100 = complete kill) at 125 g/ha (corn [7]; Zea mays, post-emergence, 240 h, 125 g ai/ha, 0 to 100 scale (0 no effect, 100 complete control)): 0%
- Corn plant response rating (crop injury, 0 = no effect, 100 = complete kill) at 500 g/ha (corn [7]; Zea mays, post-emergence, 240 h, 500 g ai/ha, 0 to 100 scale (0 no effect, 100 complete control)): 0%
- Soybean plant response rating (soybean [8]; 500 g ai/ha): 0
- Soybean plant response rating (soybean [8]; Test C, 125 g ai/ha): 0
- Plant response rating, Pigweed, Palmer (pigweed, palmer [9]; [23]): 0
- Plant response rating, Pigweed, Palmer (pigweed, palmer [9]; [24]): 0
- Plant response rating, Goosegrass (goosegrass [10]; [23]): 0
- Plant response rating, Goosegrass (goosegrass [10]; [24]): 0
- Corn plant response rating (corn [11]; 500 g ai/ha): 0
- Corn plant response rating (corn [11]; Test C, 125 g ai/ha): 0
- Plant response rating, Kochia (kochia [12]; [23]): 0
- Plant response rating, Kochia (kochia [12]; [24]): 0
- Plant response rating, Foxtail, Giant (foxtail, giant [13]; [23]): 0
- Plant response rating, Foxtail, Giant (foxtail, giant [13]; [24]): 0
- Wheat plant response rating (wheat [14]; 500 g ai/ha): 0
- Wheat plant response rating (wheat [14]; Test C, 125 g ai/ha): 0
- Plant response rating, Oat, Wild (oat, wild [15]; [23]): 0
- Plant response rating, Oat, Wild (oat, wild [15]; [24]): 0
- Blackgrass plant response rating (blackgrass [16]; 500 g ai/ha): 0
- Blackgrass plant response rating (blackgrass [16]; Test C, 125 g ai/ha): 0
- Foxtail, Giant plant response rating (foxtail, giant [17]; 500 g ai/ha): 0
- Foxtail, Giant plant response rating (foxtail, giant [17]; Test C, 125 g ai/ha): 0
- Goosegrass plant response rating (goosegrass [18]; 500 g ai/ha): 0
- Goosegrass plant response rating (goosegrass [18]; Test C, 125 g ai/ha): 0
- Plant response rating, Barnyardgrass (Flood) (barnyardgrass): 0
- Ryegrass, Italian plant response rating (ryegrass, Italian [19]; 500 g ai/ha): 30
- Ryegrass, Italian plant response rating (ryegrass, Italian [19]; Test C, 125 g ai/ha): 20
- Plant response rating, Horseweed (horseweed; [23]): 0
- Plant response rating, Horseweed (horseweed; [24]): 0
- Plant response rating, Rice (Flood) (rice): 0
- pest or weed control at 125 g/ha (blackgrass [20]; Alopecurus myosuroides, post-emergence, 240 h, 125 g ai/ha, 0 to 100 scale (0 no effect, 100 complete control), read-out: Plant response rating, Blackgrass): 0%
- pest or weed control at 500 g/ha (blackgrass [20]; Alopecurus myosuroides, post-emergence, 240 h, 500 g ai/ha, 0 to 100 scale (0 no effect, 100 complete control), read-out: Plant response rating, Blackgrass): 0%
- Pigweed, Palmer plant response rating (pigweed, palmer [21]; 500 g ai/ha): 0
- Pigweed, Palmer plant response rating (pigweed, palmer [21]; Test C, 125 g ai/ha): 0

SMILES: Cc1cccc2c1O[C@@H](C)CN2C(=O)c1cccc(-n2cnc(-c3ccccc3)n2)c1 [Compound 283]
- Plant response rating, Sedge, Umbrella (Flood) (sedge, umbrella): 0
- Plant response rating, Ducksalad (Flood) (ducksalad): 0
- Plant response rating, Wheat (wheat [1]; [23]): 10
- Plant response rating, Wheat (wheat [1]; [24]): 10
- Plant response rating, Galium (galium; [23]): 50
- Plant response rating, Galium (galium; [24]): 80
- Ragweed plant response rating (ragweed [2]; 500 g ai/ha): 0
- Ragweed plant response rating (ragweed [2]; Test C, 125 g ai/ha): 0
- Plant response rating, Soybean (soybean [3]; [23]): 90
- Plant response rating, Soybean (soybean [3]; [24]): 90
- Plant response rating, Ryegrass, Italian (ryegrass, Italian [4]; [23]): 20
- Plant response rating, Ryegrass, Italian (ryegrass, Italian [4]; [24]): 50
- Plant response rating, Ragweed (ragweed [5]; [23]): 10
- Plant response rating, Ragweed (ragweed [5]; [24]): 50
- Oat, Wild plant response rating (oat, wild [6]; 500 g ai/ha): 10
- Oat, Wild plant response rating (oat, wild [6]; Test C, 125 g ai/ha): 20
- Plant response rating, Corn (corn [7]; [23]): 20
- Plant response rating, Corn (corn [7]; [24]): 20
- Soybean plant response rating (soybean [8]; 500 g ai/ha): 30
- Soybean plant response rating (soybean [8]; Test C, 125 g ai/ha): 0
- Plant response rating, Pigweed, Palmer (pigweed, palmer [9]; [23]): 60
- Plant response rating, Pigweed, Palmer (pigweed, palmer [9]; [24]): 80
- Plant response rating, Goosegrass (goosegrass [10]; [23]): 10
- Plant response rating, Goosegrass (goosegrass [10]; [24]): 40
- Corn plant response rating (corn [11]; 500 g ai/ha): 0
- Corn plant response rating (corn [11]; Test C, 125 g ai/ha): 0
- Plant response rating, Kochia (kochia [12]; [23]): 70
- Plant response rating, Kochia (kochia [12]; [24]): 80
- Plant response rating, Foxtail, Giant (foxtail, giant [13]; [23]): 20
- Plant response rating, Foxtail, Giant (foxtail, giant [13]; [24]): 90
- Wheat plant response rating (wheat [14]; 500 g ai/ha): 10
- Wheat plant response rating (wheat [14]; Test C, 125 g ai/ha): 0
- Plant response rating, Oat, Wild (oat, wild [15]; [23]): 10
- Plant response rating, Oat, Wild (oat, wild [15]; [24]): 10
- Blackgrass plant response rating (blackgrass [16]; 500 g ai/ha): 40
- Blackgrass plant response rating (blackgrass [16]; Test C, 125 g ai/ha): 40
- Foxtail, Giant plant response rating (foxtail, giant [17]; 500 g ai/ha): 90
- Foxtail, Giant plant response rating (foxtail, giant [17]; Test C, 125 g ai/ha): 60
- Goosegrass plant response rating (goosegrass [18]; 500 g ai/ha): 100
- Goosegrass plant response rating (goosegrass [18]; Test C, 125 g ai/ha): 80
- Kochia plant response rating (kochia [22]; 500 g ai/ha): 50
- Kochia plant response rating (kochia [22]; Test C, 125 g ai/ha): 20
- Plant response rating, Barnyardgrass (Flood) (barnyardgrass): 0
- Ryegrass, Italian plant response rating (ryegrass, Italian [19]; 500 g ai/ha): 100
- Ryegrass, Italian plant response rating (ryegrass, Italian [19]; Test C, 125 g ai/ha): 70
- Plant response rating, Rice (Flood) (rice): 0
- Plant response rating, Blackgrass (blackgrass [20]; [23]): 10
- Plant response rating, Blackgrass (blackgrass [20]; [24]): 40
- Pigweed, Palmer plant response rating (pigweed, palmer [21]; 500 g ai/ha): 100
- Pigweed, Palmer plant response rating (pigweed, palmer [21]; Test C, 125 g ai/ha): 30
